# Measurements as given in patent US11529334B2, “Pharmaceutical composition for treating or preventing Parkinson's disease comprising STT as an active ingredient” (GACHON UNIVERSITY OF INDUSTRY—ACADEMIC COOPERATION …, priority 2019, dated 2022).
# Biological target: T1, TPP domain of DUSP10 (Homo sapiens, UniProt Q9Y6W6)
# T1 sequence (Q9Y6W6 321-464 limits assumed): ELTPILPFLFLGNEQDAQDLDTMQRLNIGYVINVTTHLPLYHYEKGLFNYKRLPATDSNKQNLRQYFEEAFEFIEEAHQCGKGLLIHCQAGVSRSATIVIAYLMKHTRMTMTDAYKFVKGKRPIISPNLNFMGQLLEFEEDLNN
# Experiment: SPR (Surface Plasmon Resonance) assay, Reichert SR7500DC
# Format: binding
# Protocol: SPR (Surface Plasmon Resonance) assay was performed using Reichert SR7500DC system to confirm the presence or absence of interaction between the compounds above and the TPP domain of DUSP10.
# [1] = Table 1, running buffer 1xPBS, 2% DMSO
# [2] = Table 1, running buffer 1xPBS, pH 7.4
smiles,measurement,setting,value
O=S(=O)(O)CCN1CCOCC1 [MES],interaction with the TPP domain (in words),SPR,weak interaction
same,Ka (association rate),[1],2.90(4) M−^1-s−^1
same,Kd,[1],12.3 mM
same,Kd (dissociation rate),[1],0.0357(6) s−^1
same,Ka (association rate),[2],3.50(5) M−^1-s−^1
same,Kd,[2],17.9 mM
same,Kd (dissociation rate),[2],0.0627(9) s−^1
same,Kd,"Table 2, 0-200 mM analyte",63 mM
same,Ka,"Table 2, higher analyte concentrations (MES up to 200 mM, STT up to 10 mM)",0.152(7) M−^1-s−^1
same,dissociation rate constant (kd),"Table 2, second column headed Ka, higher analyte concentrations",0.0096(2) s−^1
